In patent publication US20250154169A1, “COMPOUNDS AND METHODS FOR MODULATING SPLICING” (REMIX THERAPEUTICS INC., priority 2021, published 2025):
Where two headings read alike, the source gives them in different places.

What was measured:
HTT mRNA = assay: Splicing RT-qPCR assay, HTT canonical (CJ) and alternative (AJ) junction mRNA; assay type: cell-based, human; conditions: Homo sapiens, A673 or K562 cells, 24 hours compound treatment; for IC50: 24 h, read-out: HTT CJ (IC50, decrease in canonical junction mRNA); for AC50: read-out: HTT AJ (AC50, increase in alternative junction mRNA)
Description: (§1) Compounds described herein were used to modulate RNA transcript abundance in cells. The expression of a target mRNA was measured by detecting the formation of an exon-exon junction in the canonical transcript (CJ). A compound mediated exon-inclusion event was detected by observing an increase in formation of a new junction with an alternative exon (AJ). Real-time qPCR assays were used to detect these splicing switches and interrogate the potency of various compounds towards different target genes. A high-throughput real time quantitative PCR (RT-qPCR) assay was developed to measure these two isoforms of the mRNA (CJ and AJ) for exemplary genes, such as HTT, SMN2, and MYB, together with a control housekeeping gene, GAPDH or GUSB or PPIA, used for normalization. Briefly, the A673 or K562 cell line was treated with various compounds described herein (e.g., compounds of Formula (I)). After treatment, the levels of the HTT, MYB, or SMN2 mRNA targets were determined from each sample of cell lysate by cDNA synthesis followed by qPCR.
(§2) • Cells-to-CT 1-step kit: ThermoFisher A25602, Cells-to-CT lysis reagent: ThermoFisher 4391851C, TaqMan™ Fast Virus 1-Step Master Mix: ThermoFisher 4444436 • GAPDH: VIC-PL, ThermoFisher 4326317E (Assay: Hs99999905_m1)—used for K562/suspension cell lines • GUSB: VIC-PL, ThermoFisher 4326320E (Assay: Hs99999908_m1)—used for K562/suspension cell lines • PPIA: VIC-PL, ThermoFisher 4326316E (Assay: Hs99999904_m1)—used for A673/adherent cell lines
(§3) The A673 cell line was cultured in DMEM with 10% FBS. Cells were diluted with full growth media and plated in a 96-well plate (15,000 cells in 100 ul media per well). The plate was incubated at 37° C. with 5% CO2 for 24 hours to allow cells to adhere. An 11-point 3-fold serial dilution of the compounds was made in DMSO then diluted in media in an intermediate plate. Compounds were transferred from the intermediate plate to the cell plate with the top dose at a final concentration of 10 uM in the well. Final DMSO concentration was kept at or below 0.25%. The cell plate was returned to the incubator at 37° C. with 5% CO2 for an additional 24 hours.
(§4) The K562 cell line was cultured in IMDM with 10% FBS. For K562, cells were diluted with full growth media and plated in either a 96-well plate (50,000 cells in 50 uL media per well) or a 384-well plate (8,000-40,000 cells in 45 uL media per well). An 11-point 3-fold serial dilution of the compounds were made in DMSO then diluted in media in an intermediate plate. Compound was transferred from the intermediate plate to the cell plate with the top dose at a final concentration of 10 uM in the well. Final DMSO concentration was kept at or below 0.25%. Final volume was 100 uL for 96-well plate and 50 uL for 384-well plate. The cell plate was then placed in an incubator at 37° C. with 5% CO2 for 24 hours.
(§5) The cells were then gently washed with 50 uL-100 uL cold PBS before proceeding to addition of lysis buffer. 30 uL-50 uL of room temperature lysis buffer with DNAse I (and optionally RNAsin) was added to each well. Cells were shaken/mixed thoroughly at room temperature for 5-10 minutes for lysis to take place and then 3 uL-5 uL of room temperature stop solution was added and wells were shaken/mixed again. After 2-5 minutes, the cell lysate plate was transferred to ice for RT-qPCR reaction setup. The lysates could also be frozen at −80° C. for later use.
(§6) In some cases, a direct lysis buffer was used. An appropriate volume of 3× lysis buffer (10 mM Tris, 150 mM NaCl, 1.5%-2.5% Igepal and 0.1-1 U/uL RNAsin, pH 7.4) was directly added to either K562 or A673 cells in media and mixed by pipetting 3 times. The plates were then incubated at room temperature with shaking/rocking for 20-50 minutes to allow for lysis to take place. After this time, the cell lysate plate was transferred to ice to set up for the RT-qPCR reactions. The lysates could also be frozen at −80° C. for later use. […]

MYB mRNA = assay: Splicing RT-qPCR assay, MYB canonical (CJ) and alternative (AJ) junction mRNA; assay type: cell-based, human; conditions: A673 or K562 cells, 24 hours compound treatment, RT-qPCR; for AC50: read-out: MYB AJ (AC50, increase in alternative junction mRNA); for IC50: read-out: MYB CJ (IC50, decrease in canonical junction mRNA)
Description: as §1, §2, §3, §4, §5, §6

Structure (SMILES) | IC50 (HTT mRNA) | AC50 (HTT mRNA) | AC50 (MYB mRNA; Homo sapiens, 24 h) | IC50 (MYB mRNA; Homo sapiens, 24 h) | AC50 (MYB mRNA) | IC50 (MYB mRNA)
CCNC1CCN(c2ccc(C(=O)Nc3cc(F)c4nc(C)cn4c3)c3nn(CC)cc23)C1 (stereo in doubt) [Compound 399, (S)-2-ethyl-4-(3-(ethylamino)pyrrolidin-1-yl)-N-(8-fluoro-2-methylimidazo[1,2-a]pyridin-6-yl)-2H-indazole-7-carboxamide] | > 10 µM | > 10 µM | 0.1 to 1 µM | 0.1 to 1 µM | – | –
CCNC1CCN(c2ccc(C(=O)Nc3cc(F)c4nc(C)cn4c3)c3nn(CC)cc23)C1 (stereo in doubt) [Compound 400, (R)-2-ethyl-4-(3-(ethylamino)pyrrolidin-1-yl)-N-(8-fluoro-2-methylimidazo[1,2-a]pyridin-6-yl)-2H-indazole-7-carboxamide] | > 10 µM | > 10 µM | < 0.1 µM | < 0.1 µM | – | –
Cc1cn2cc(NC(=O)c3ccc(N4CCc5[nH]ccc5C4)c4cn(C)nc34)cc(F)c2n1 [Compound 390, N-{8-fluoro-2-methylimidazo[1,2-a]pyridin-6-yl}-2-methyl-4-{1H,4H,6H,7H-pyrrolo[3,2-c]pyridin-5-yl}indazole-7-carboxamide] | > 10 µM | > 10 µM | > 10 µM | > 10 µM | – | –
Cc1cn2cc(NC(=O)c3ccc(N4CCNCC4)c4cn(C5CCC5)nc34)cc(F)c2n1 [Compound 391, 2-cyclobutyl-N-{8-fluoro-2-methylimidazo[1,2-a]pyridin-6-yl}-4-(piperazin-1-yl) indazole-7-carboxamide] | > 10 µM | 1 to 10 µM | 0.1 to 1 µM | < 0.1 µM | – | –
C=CCn1cc2c(N3CCNCC3)ccc(C(=O)Nc3cc(F)c4nc(C)cn4c3)c2n1 [Compound 392, N-{8-fluoro-2-methylimidazo[1,2-a]pyridin-6-yl}-4-(piperazin-1-yl)-2-(prop-2-en-1-yl) indazole-7-carboxamide] | 1 to 10 µM | 1 to 10 µM | < 0.1 µM | < 0.1 µM | – | –
CCn1cc2c(N3CC[C@@H](NC)C3)ccc(C(=O)Nc3cc(F)c4nc(C)cn4c3)c2n1 [Compound 393, (R)-2-ethyl-N-(8-fluoro-2-methylimidazo[1,2-a]pyridin-6-yl)-4-(3-(methylamino)pyrrolidin-1-yl)-2H-indazole-7-carboxamide] | > 10 µM | > 10 µM | – | – | 0.1 to 1 µM | 0.1 to 1 µM
CCn1cc2c(N3CCC4(CCN4)CC3)ccc(C(=O)Nc3cc(F)c4nc(C)cn4c3)c2n1 [Compound 394, 4-{1,7-diazaspiro[3.5]nonan-7-yl}-2-ethyl-N-{8-fluoro-2-methylimidazo[1,2-a]pyridin-6-yl}indazole-7-carboxamide] | 1 to 10 µM | 1 to 10 µM | 0.1 to 1 µM | 0.1 to 1 µM | – | –
CCn1cc2c(N3CCC(N(C)C)CC3)ccc(C(=O)Nc3cc(F)c4nc(C)cn4c3)c2n1 [Compound 395, 4-[4-(dimethylamino)piperidin-1-yl]-2-ethyl-N-{8-fluoro-2-methylimidazo[1,2-a]pyridin-6-yl}indazole-7-carboxamide] | 1 to 10 µM | 1 to 10 µM | < 0.1 µM | < 0.1 µM | – | –
CCNC1CCN(c2ccc(C(=O)Nc3cc(F)c4nc(C)cn4c3)c3nn(CC)cc23)C1 (centres unmarked) [Compound 396, 2-ethyl-4-[3-(ethylamino)pyrrolidin-1-yl]-N-{8-fluoro-2-methylimidazo[1,2-a]pyridin-6-yl}indazole-7-carboxamide] | > 10 µM | > 10 µM | < 0.1 µM | 0.1 to 1 µM | – | –
Cc1cn2cc(NC(=O)c3ccc(N4CCC(N)(CF)CC4)c4cn(C)nc34)cc(F)c2n1 [Compound 397] | 1 to 10 µM | 1 to 10 µM | 0.1 to 1 µM | 0.1 to 1 µM | – | –
CCn1cc2c(N3CCC(NC4CC4)C3)ccc(C(=O)Nc3cc(F)c4nc(C)cn4c3)c2n1 (centres unmarked) [Compound 398, 4-[3-(cyclopropylamino)pyrrolidin-1-yl]-2-ethyl-N-{8-fluoro-2-methylimidazo[1,2-a]pyridin-6-yl}indazole-7-carboxamide] | > 10 µM | > 10 µM | 0.1 to 1 µM | 0.1 to 1 µM | – | –
